# In PubChem BioAssay (NCI):
#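 At the GI50, growth is halved. At the TGI there is no net growth.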
# Experiments:
# Experiment in all cases: DTP human tumour cell line panel, 384-well format
# SK-OV-3 ovarian = test system: SK-OV-3 ovarian
# SNB-19 CNS = test system: SNB-19 CNS
# COLO 205 colon = test system: COLO 205 colon
# MCF7 breast = test system: MCF7 breast
# SF-295 CNS = test system: SF-295 CNS
# HOP-62 NSCLC = test system: HOP-62 NSCLC
# OVCAR-4 ovarian = test system: OVCAR-4 ovarian
# CCRF-CEM leukemia = test system: CCRF-CEM leukemia
# MDA-MB-468 breast = test system: MDA-MB-468 breast
# RPMI-8226 leukemia = test system: RPMI-8226 leukemia
# DU-145 prostate = test system: DU-145 prostate
# A498 renal = test system: A498 renal
# UO-31 renal = test system: UO-31 renal
# NCI-H226 lung = test system: NCI-H226 lung
# LOX IMVI melanoma = test system: LOX IMVI melanoma
# U251 glioblastoma = test system: U251 glioblastoma
# NCI/ADR-RES ovarian = test system: NCI/ADR-RES ovarian
# 786-0 renal = test system: 786-0 renal
# SN12C renal = test system: SN12C renal
# CAKI-1 renal = test system: CAKI-1 renal
# HCT-15 colon = test system: HCT-15 colon
# KM12 colon = test system: KM12 colon
# OVCAR-5 ovarian = test system: OVCAR-5 ovarian
# UACC-62 melanoma = test system: UACC-62 melanoma
# MDA-MB-231 breast = test system: MDA-MB-231 breast
# SF-539 CNS = test system: SF-539 CNS
# ACHN renal = test system: ACHN renal
# NCI-H522 lung = test system: NCI-H522 lung
# NCI-H322M lung = test system: NCI-H322M lung
# TK-10 renal = test system: TK-10 renal
# SW-620 colon = test system: SW-620 colon
# MOLT-4 leukemia = test system: MOLT-4 leukemia
# OVCAR-8 ovarian = test system: OVCAR-8 ovarian
# NCI-H460 NSCLC = test system: NCI-H460 NSCLC
# SK-MEL-5 melanoma = test system: SK-MEL-5 melanoma
# RXF 393 renal = test system: RXF 393 renal
# M14 melanoma = test system: M14 melanoma
# PC-3 prostate = test system: PC-3 prostate
# SNB-75 CNS = test system: SNB-75 CNS
# SK-MEL-2 melanoma = test system: SK-MEL-2 melanoma
# BT-549 breast = test system: BT-549 breast
# K-562 leukemia = test system: K-562 leukemia
# UACC-257 melanoma = test system: UACC-257 melanoma
# HCC-2998 colon = test system: HCC-2998 colon
# SR leukemia = test system: SR leukemia
# EKVX NSCLC = test system: EKVX NSCLC
# HCT-116 colon = test system: HCT-116 colon
# HL-60(TB) leukemia = test system: HL-60(TB) leukemia
# MALME-3M melanoma = test system: MALME-3M melanoma
# A549 NSCLC = test system: A549 NSCLC
# SK-MEL-28 melanoma = test system: SK-MEL-28 melanoma
# IGROV1 ovarian = test system: IGROV1 ovarian
# OVCAR-3 ovarian = test system: OVCAR-3 ovarian
# NCI-H23 lung = test system: NCI-H23 lung
# HT29 colon = test system: HT29 colon
# HOP-92 NSCLC = test system: HOP-92 NSCLC
# T-47D breast = test system: T-47D breast
# MDA-MB-435 melanoma = test system: MDA-MB-435 melanoma
# SF-268 CNS = test system: SF-268 CNS
smiles,measurement,setting,value
CCc1cccc(CC)c1NC(=O)c1ccn2c1CCc1cnc(Nc3ccc(N4CCN(C)CC4)cc3OC)nc1-2,GI50,SK-OV-3 ovarian,1.26 µM
same,TGI,SK-OV-3 ovarian,2.54 µM
same,GI50,SNB-19 CNS,1.21 µM
same,TGI,SNB-19 CNS,2.58 µM
same,GI50,COLO 205 colon,< 0.01 µM
same,TGI,COLO 205 colon,1.25 µM
same,GI50,MCF7 breast,< 0.01 µM
same,TGI,MCF7 breast,2.16 µM
same,GI50,SF-295 CNS,0.0366 µM
same,TGI,SF-295 CNS,1.82 µM
same,GI50,HOP-62 NSCLC,< 0.0196 µM
same,TGI,HOP-62 NSCLC,1.76 µM
same,GI50,OVCAR-4 ovarian,1.49 µM
same,TGI,OVCAR-4 ovarian,2.91 µM
same,GI50,CCRF-CEM leukemia,< 0.01 µM
same,TGI,CCRF-CEM leukemia,0.0111 µM
same,GI50,MDA-MB-468 breast,0.0362 µM
same,TGI,MDA-MB-468 breast,0.305 µM
same,GI50,RPMI-8226 leukemia,0.0178 µM
same,TGI,RPMI-8226 leukemia,0.0575 µM
same,GI50,DU-145 prostate,0.0358 µM
same,TGI,DU-145 prostate,2.32 µM
same,GI50,A498 renal,< 0.0219 µM
same,TGI,A498 renal,1.97 µM
same,GI50,UO-31 renal,0.075 µM
same,TGI,UO-31 renal,1.89 µM
same,GI50,NCI-H226 lung,0.315 µM
same,TGI,NCI-H226 lung,2.43 µM
same,GI50,LOX IMVI melanoma,0.0134 µM
same,TGI,LOX IMVI melanoma,1.36 µM
same,GI50,U251 glioblastoma,< 0.0115 µM
same,TGI,U251 glioblastoma,1.48 µM
same,GI50,NCI/ADR-RES ovarian,0.027 µM
same,TGI,NCI/ADR-RES ovarian,0.0862 µM
same,GI50,786-0 renal,0.0391 µM
same,TGI,786-0 renal,1.69 µM
same,GI50,SN12C renal,0.997 µM
same,TGI,SN12C renal,2.16 µM
same,GI50,CAKI-1 renal,0.242 µM
same,TGI,CAKI-1 renal,2.2 µM
same,GI50,HCT-15 colon,< 0.01 µM
same,TGI,HCT-15 colon,1.35 µM
same,GI50,KM12 colon,1.09 µM
same,TGI,KM12 colon,2.32 µM
same,GI50,OVCAR-5 ovarian,0.11 µM
same,TGI,OVCAR-5 ovarian,1.97 µM
same,GI50,UACC-62 melanoma,0.605 µM
same,TGI,UACC-62 melanoma,2.18 µM
same,GI50,MDA-MB-231 breast,1.1 µM
same,TGI,MDA-MB-231 breast,2.32 µM
same,GI50,SF-539 CNS,< 0.0194 µM
same,TGI,SF-539 CNS,1.45 µM
same,GI50,ACHN renal,0.0379 µM
same,TGI,ACHN renal,2.21 µM
same,GI50,NCI-H522 lung,0.0889 µM
same,TGI,NCI-H522 lung,1.72 µM
same,GI50,NCI-H322M lung,1.48 µM
same,TGI,NCI-H322M lung,3.08 µM
same,GI50,TK-10 renal,0.312 µM
same,TGI,TK-10 renal,2.37 µM
same,GI50,SW-620 colon,< 0.01 µM
same,GI50,MOLT-4 leukemia,< 0.01 µM
same,GI50,OVCAR-8 ovarian,0.0198 µM
same,TGI,OVCAR-8 ovarian,1.14 µM
same,GI50,NCI-H460 NSCLC,< 0.01 µM
same,TGI,NCI-H460 NSCLC,1.07 µM
same,GI50,SK-MEL-5 melanoma,0.0615 µM
same,TGI,SK-MEL-5 melanoma,2.02 µM
same,GI50,RXF 393 renal,< 0.0198 µM
same,TGI,RXF 393 renal,1.75 µM
same,GI50,M14 melanoma,0.2 µM
same,TGI,M14 melanoma,2.15 µM
same,GI50,PC-3 prostate,1.14 µM
same,TGI,PC-3 prostate,2.4 µM
same,GI50,SNB-75 CNS,1.37 µM
same,TGI,SNB-75 CNS,2.69 µM
same,GI50,SK-MEL-2 melanoma,0.196 µM
same,TGI,SK-MEL-2 melanoma,1.95 µM
same,GI50,BT-549 breast,0.0489 µM
same,TGI,BT-549 breast,1.45 µM
same,GI50,K-562 leukemia,0.0824 µM
same,TGI,K-562 leukemia,1.4 µM
same,GI50,UACC-257 melanoma,0.293 µM
same,TGI,UACC-257 melanoma,0.894 µM
same,GI50,HCC-2998 colon,1.38 µM
same,TGI,HCC-2998 colon,2.71 µM
same,GI50,SR leukemia,< 0.01 µM
same,GI50,EKVX NSCLC,0.283 µM
same,TGI,EKVX NSCLC,2.28 µM
same,GI50,HCT-116 colon,< 0.01 µM
same,TGI,HCT-116 colon,1.77 µM
same,GI50,HL-60(TB) leukemia,0.0136 µM
same,TGI,HL-60(TB) leukemia,0.0364 µM
same,GI50,MALME-3M melanoma,1.25 µM
same,TGI,MALME-3M melanoma,2.51 µM
same,GI50,A549 NSCLC,< 0.01 µM
same,TGI,A549 NSCLC,2.48 µM
same,GI50,SK-MEL-28 melanoma,1.21 µM
same,TGI,SK-MEL-28 melanoma,2.46 µM
same,GI50,IGROV1 ovarian,1.22 µM
same,TGI,IGROV1 ovarian,2.48 µM
same,GI50,OVCAR-3 ovarian,0.11 µM
same,TGI,OVCAR-3 ovarian,2 µM
same,GI50,NCI-H23 lung,0.0562 µM
same,TGI,NCI-H23 lung,2.68 µM
same,GI50,HT29 colon,0.0562 µM
same,TGI,HT29 colon,1.53 µM
same,GI50,HOP-92 NSCLC,0.758 µM
same,TGI,HOP-92 NSCLC,2.12 µM
same,GI50,T-47D breast,1.1 µM
same,TGI,T-47D breast,2.32 µM
same,GI50,MDA-MB-435 melanoma,1.07 µM
same,TGI,MDA-MB-435 melanoma,2.58 µM
same,GI50,SF-268 CNS,1.29 µM
same,TGI,SF-268 CNS,2.77 µM
